ChEMBL document CHEMBL1140347, “Peptidyl vinyl ester derivatives: new class of selective inhibitors of proteasome trypsin-like activity” (J Med Chem, 2005)

What was measured:
Proteasome [1] = assay: Inhibition of chymotrypsin like activity of the proteasome purified from lymphoblastoid cell lines (in vitro); assay type: subcellular
Proteasome [2] = assay: Inhibition of post-acidic-like (PGPH) activity of the proteasome purified from lymphoblastoid cell lines (in vitro)
Proteasome [3] = assay: Inhibition of trypsin like activity of the proteasome purified from lymphoblastoid cell lines (in vitro); assay type: subcellular
[4] = Half-life in human plasma by incubation at […]; assay type: ADME, cell-free
[5] = Half-life in culture medium (RPMI) in the presence of 10% foetal calf serum by incubation at […]; assay type: ADME; settings: cattle, culture medium (RPMI) with 10% foetal calf serum
Proteasome [6] = assay: Inhibition of trypsin like activity of the proteasome in colon carcinoma cell lines HCT116; assay type: subcellular
Proteasome [7] = assay: Inhibition of trypsin like activity of the proteasome in colon carcinoma cell lines COO115; assay type: subcellular

Row | IC50 (Proteasome [1]) [µM] | IC50 (Proteasome [2]) [µM] | IC50 (Proteasome [3]) [nM] | half-life [4] [min] | half-life [5] [min] | IC50 (Proteasome [6]) [nM] | IC50 (Proteasome [7]) [nM] | SMILES
1 | > 10 | > 10 | 110 | 154 | > 360 | – | – | CCOC(=O)/C=C/[C@H](CC(C)C)NC(=O)[C@H](CO)NC(=O)[C@@H](NC(=O)C1=CCCN(C(=O)OC(C)(C)C)C1)C(C)C
2 | 6.54 | > 10 | 380 | > 360 | > 360 | – | – | CCOC(=O)/C=C/[C@H](CC(C)C)NC(=O)[C@H](CO)NC(=O)[C@@H](NC(=O)C1=CCCNC1)C(C)C
3 | > 10 | > 10 | 71 | 238 | > 360 | – | – | CCOC(=O)/C=C/[C@H](CC(C)C)NC(=O)[C@H](CO)NC(=O)[C@@H](NC(=O)OCc1ccccc1)C(C)C
4 | > 10 | > 10 | 33 | > 360 | > 360 | 33 | – | CCOC(=O)/C=C/[C@H](CC(C)C)NC(=O)[C@H](CO)NC(=O)[C@@H](NC(=O)c1cccc(O)c1C)C(C)C
5 | 4.36 | > 10 | 190 | 198 | > 360 | – | – | CCOC(=O)/C=C/[C@H](CC(C)C)NC(=O)[C@H](CC(C)C)NC(=O)[C@H](CC(C)C)NC(=O)C1=CCCN(C(=O)OC(C)(C)C)C1
6 | 4.21 | > 10 | 41 | > 360 | > 360 | – | 41 | CCOC(=O)/C=C/[C@H](CC(C)C)NC(=O)[C@H](CC(C)C)NC(=O)[C@H](CC(C)C)NC(=O)c1cccc(O)c1C
7 | 2.45 | > 10 | 280 | 292 | > 360 | – | – | CCOC(=O)/C=C/[C@H](CC(C)C)NC(=O)[C@H](CC(C)C)NC(=O)[C@H](CC(C)C)NC(=O)OCc1ccccc1
8 | 0.86 | > 10 | 210 | > 360 | > 360 | – | – | CCOC(=O)/C=C/[C@H](CC(C)C)NC(=O)[C@H](CC(C)C)NC(=O)[C@H](CC(C)C)NC(=O)C1=CCCNC1
